Test results: patent US12240813B2, “Deuterated tryptamine derivatives and methods of use” (priority 2020, dated 2025)

Assays:
rat liver microsomes = test: Metabolic stability in rat liver microsomes (RLM); settings: for RLM, % (half-life as % vs. the related nondeuterated compound): values in square brackets are within 10% difference (assay's accuracy), no deuteration effect; for RLM, % (half-life as % vs. the related nondeuterated compound) / % Remaining of Initial, 0 min / % Remaining of Initial, 5 min / % Remaining of Initial, 10 min / % Remaining of Initial, 20 min / % Remaining of Initial, 30 min / % Remaining of Initial, 60 min / % Remaining of Initial, 120 min / RLM (metabolized or not): RLM; for RLM (metabolized or not): last assay time point 120 min
hrMAO-A = target: T1, hrMAO-A (Homo sapiens, UniProt P21397); test: Metabolic stability in the presence of hrMAO-A; format: in vitro ADME; settings: for MAO, % (half-life as % vs. the related nondeuterated compound) / MAO (metabolized or not): MAO-A; for MAO, % (half-life as % vs. the related nondeuterated compound): values in square brackets are within 10% difference (assay's accuracy), no deuteration effect; for % Remaining of Initial, 0 min / % Remaining of Initial, 5 min / % Remaining of Initial, 10 min / % Remaining of Initial, 20 min / % Remaining of Initial, 30 min / % Remaining of Initial, 60 min / % Remaining of Initial, 120 min / Half-life: hrMAO-A; for MAO (metabolized or not): last assay time point 120 min
T1 construct: purchased XenoTech Lot #8213001
T1 sequence (P21397 1-527): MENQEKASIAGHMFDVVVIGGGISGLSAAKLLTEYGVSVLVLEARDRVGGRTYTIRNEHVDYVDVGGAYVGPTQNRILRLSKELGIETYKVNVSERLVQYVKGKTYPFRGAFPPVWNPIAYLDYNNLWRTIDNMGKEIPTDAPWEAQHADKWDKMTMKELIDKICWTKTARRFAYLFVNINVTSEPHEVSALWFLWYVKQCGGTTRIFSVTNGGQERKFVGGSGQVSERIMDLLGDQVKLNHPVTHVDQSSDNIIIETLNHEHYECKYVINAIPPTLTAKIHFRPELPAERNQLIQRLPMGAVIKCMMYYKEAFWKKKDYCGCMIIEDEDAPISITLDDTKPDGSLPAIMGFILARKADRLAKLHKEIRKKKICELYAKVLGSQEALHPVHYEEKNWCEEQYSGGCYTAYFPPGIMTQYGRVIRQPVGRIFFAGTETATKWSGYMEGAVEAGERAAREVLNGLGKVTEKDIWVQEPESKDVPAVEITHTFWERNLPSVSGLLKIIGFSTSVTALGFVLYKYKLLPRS
Protocol: The reaction mixture was prepared as described below. The co-dosed TAs were added into the reaction mixture at a final concentration of 1 microM each. The positive control, kynuramine (25 microM), was run simultaneously with the TAs in a separate reaction. The reaction mixture (without TAs or kynuramine) was equilibrated in a shaking water bath at 37° C. for 5 minutes. The reaction was initiated by the addition of the TAs or kynuramine, and the mixture was incubated in a shaking water bath at 37° C. Aliquots (100 microL) of the TA reaction mixture were withdrawn at 0, 5, 10, 20, 30, 60, and 120 minutes. Aliquots (100 microL) of the positive control reaction mixture were withdrawn at 0 and 30 minutes. TA and kynuramine samples were immediately combined with 100 microL of ice-cold 100% MeCN containing 0.1% formic acid and IS to terminate the reaction. The samples were then mixed and centrifuged to precipitate proteins. All TA samples were assayed by LC-HRAMS. The PARR (analyte to IS) at each time point was compared to the PARR at time 0 to determine the percent remaining at each time point. Reaction composition: hrMAO 0.02 mg/mL; Potassium Phosphate, pH 7.4 100 mM; Magnesium Chloride 5 mM; Test Articles (each) 1 microM.

[1] = Table 4, d8 and d10 analogs of DMT
[2] = Table 5, d8 and d10 analogs of DMT

## [2H]C([2H])(c1c[nH]c2ccc(O)cc12)C([2H])([2H])N(C)CC
Rat liver microsomes
  RLM, % (half-life as % vs. the related nondeuterated compound): 144%
hrMAO-A
  MAO, % (half-life as % vs. the related nondeuterated compound): 179%

## [2H]C([2H])([2H])N(C([2H])([2H])[2H])C([2H])([2H])C([2H])([2H])c1c[nH]c2ccccc12 [DMT-d10]
Rat liver microsomes; Table 2, four test articles
  % Remaining of Initial, 0 min: 100%
  % Remaining of Initial, 5 min: 72.5%
  % Remaining of Initial, 10 min: 62.2%
  % Remaining of Initial, 20 min: 55.2%
  % Remaining of Initial, 30 min: 50.9%
  % Remaining of Initial, 60 min: 39.6%
  % Remaining of Initial, 120 min: 29.4%
Rat liver microsomes; [1]
  % Remaining of Initial, 0 min: 100%
  % Remaining of Initial, 5 min: 69.3%
  % Remaining of Initial, 10 min: 56.0%
  % Remaining of Initial, 20 min: 44.9%
  % Remaining of Initial, 30 min: 39.3%
  % Remaining of Initial, 60 min: 30.5%
  % Remaining of Initial, 120 min: 23.6%
Rat liver microsomes; rat liver microsomes, compared with DMT-α,α-d2 and DMT-α,α,β,β-d4
  metabolic stability: Further enhancement of metabolic stability
hrMAO-A; MAO-A enzymatic assay
  stability in the MAO-A enzymatic assay: superiority
hrMAO-A; Table 3, four test articles
  % Remaining of Initial, 0 min: 100%
  % Remaining of Initial, 5 min: 107%
  % Remaining of Initial, 10 min: 112%
  % Remaining of Initial, 20 min: 103%
  % Remaining of Initial, 30 min: 101%
  % Remaining of Initial, 60 min: 82.2%
  % Remaining of Initial, 120 min: 68.6%
  Half-life: > 2 h
hrMAO-A; [2]
  % Remaining of Initial, 0 min: 100.0%
  % Remaining of Initial, 5 min: 99.0%
  % Remaining of Initial, 10 min: 94.9%
  % Remaining of Initial, 20 min: 95.4%
  % Remaining of Initial, 30 min: 91.4%
  % Remaining of Initial, 60 min: 81.5%
  % Remaining of Initial, 120 min: 65.8%
  Half-life: > 2 h

## [2H]C([2H])(Cc1c[nH]c2cccc(OC)c12)N(C)CC
Rat liver microsomes
  RLM, % (half-life as % vs. the related nondeuterated compound): 163%
hrMAO-A
  MAO, % (half-life as % vs. the related nondeuterated compound): 281%

## CCNCCc1c[nH]c2cccc(O)c12 [reference compound]
Rat liver microsomes
  RLM (metabolized or not): R

## [2H]C([2H])(NCC)C([2H])([2H])c1c[nH]c2ccccc12
Rat liver microsomes
  RLM, % (half-life as % vs. the related nondeuterated compound): 142%
hrMAO-A
  MAO, % (half-life as % vs. the related nondeuterated compound): 140%

## [2H]C([2H])(Cc1c[nH]c2cccc(O)c12)NC
Rat liver microsomes
  RLM, % (half-life as % vs. the related nondeuterated compound): 154%
hrMAO-A
  MAO, % (half-life as % vs. the related nondeuterated compound): 395%

## [2H]c1[nH]c2c([2H])c([2H])c(OC)c([2H])c2c1CCN(CC)CC
Rat liver microsomes
  RLM, % (half-life as % vs. the related nondeuterated compound): 172%

## [2H]C([2H])(c1c[nH]c2ccc(OC)cc12)C([2H])([2H])N(C)CC
Rat liver microsomes
  RLM, % (half-life as % vs. the related nondeuterated compound): 115%
hrMAO-A
  MAO, % (half-life as % vs. the related nondeuterated compound): 132%

## [2H]c1[nH]c2c([2H])c([2H])c([2H])c(O)c2c1CCN(C(C)C)C(C)C
Rat liver microsomes
  RLM, % (half-life as % vs. the related nondeuterated compound): 167%

## C=CCN(CC=C)CCc1c[nH]c2ccccc12 [reference compound]
Rat liver microsomes
  RLM (metabolized or not): R

## [2H]c1[nH]c2c([2H])c([2H])c([2H])c([2H])c2c1C([2H])([2H])C([2H])([2H])N(C([2H])([2H])[2H])C([2H])([2H])[2H] [DMT-d15]
Rat liver microsomes; RLM assay
  half-life compared to DMT-d10: no improvement in half-life
Rat liver microsomes
  RLM, % (half-life as % vs. the related nondeuterated compound): 325%
hrMAO-A
  MAO, % (half-life as % vs. the related nondeuterated compound): 643%

## CC(C)NCCc1c[nH]c2cccc(O)c12 [reference compound]
Rat liver microsomes
  RLM (metabolized or not): R

## [2H]C([2H])(c1c[nH]c2ccc(OC)cc12)C([2H])([2H])N(CC)CC
Rat liver microsomes
  RLM, % (half-life as % vs. the related nondeuterated compound): [95] %

## [2H]C([2H])([2H])NC([2H])([2H])Cc1c[nH]c2cccc(O)c12
Rat liver microsomes
  RLM, % (half-life as % vs. the related nondeuterated compound): 163%
hrMAO-A
  MAO, % (half-life as % vs. the related nondeuterated compound): 466%

## [2H]C([2H])(Cc1c[nH]c2ccccc12)NC
Rat liver microsomes
  RLM, % (half-life as % vs. the related nondeuterated compound): 182%
hrMAO-A
  MAO, % (half-life as % vs. the related nondeuterated compound): 578%

## CCN(CC)CCc1c[nH]c2ccc(OC)cc12 [reference compound]
Rat liver microsomes
  RLM (metabolized or not): R

## [2H]C([2H])(Cc1c[nH]c2ccccc12)NC([2H])([2H])C([2H])([2H])[2H]
Rat liver microsomes
  RLM, % (half-life as % vs. the related nondeuterated compound): 151%
hrMAO-A
  MAO, % (half-life as % vs. the related nondeuterated compound): 170%

## [2H]C([2H])(Cc1c[nH]c2ccccc12)N(C)CC
Rat liver microsomes
  RLM, % (half-life as % vs. the related nondeuterated compound): 121%
hrMAO-A
  MAO, % (half-life as % vs. the related nondeuterated compound): 168%

## [2H]C([2H])(NC)C([2H])([2H])c1c[nH]c2cccc(O)c12
Rat liver microsomes
  RLM, % (half-life as % vs. the related nondeuterated compound): 160%
hrMAO-A
  MAO, % (half-life as % vs. the related nondeuterated compound): 396%

## [2H]C([2H])(c1c[nH]c2ccccc12)C([2H])([2H])N(C)CC
Rat liver microsomes
  RLM, % (half-life as % vs. the related nondeuterated compound): 131%
hrMAO-A
  MAO, % (half-life as % vs. the related nondeuterated compound): 162%

## CN(C)CCc1c[nH]c2ccc(O)cc12 [reference compound]
Rat liver microsomes
  RLM (metabolized or not): R
hrMAO-A
  MAO (metabolized or not): R

## [2H]C([2H])(NC(C)C)C([2H])([2H])c1c[nH]c2cccc(O)c12
Rat liver microsomes
  RLM, % (half-life as % vs. the related nondeuterated compound): [108] %

## CCN(C)CCc1c[nH]c2ccccc12 [reference compound]
Rat liver microsomes
  RLM (metabolized or not): R
hrMAO-A
  MAO (metabolized or not): R

## CCN(CC)CCc1c[nH]c2cccc(OC)c12 [reference compound]
Rat liver microsomes
  RLM (metabolized or not): R

## [2H]c1[nH]c2c([2H])c([2H])c([2H])c(O)c2c1CCN([2H])C(C)C
Rat liver microsomes
  RLM, % (half-life as % vs. the related nondeuterated compound): 131%

## [2H]C([2H])(c1c[nH]c2ccc(O)cc12)C([2H])([2H])N(CC)CC
Rat liver microsomes
  RLM, % (half-life as % vs. the related nondeuterated compound): [106] %

## C=CCNCCc1c[nH]c2ccccc12 [reference compound]
Rat liver microsomes
  RLM (metabolized or not): R

## [2H]C([2H])(c1c[nH]c2ccccc12)C([2H])([2H])N(CC)CC
Rat liver microsomes
  RLM, % (half-life as % vs. the related nondeuterated compound): [105] %

## CC(C)N(CCc1c[nH]c2cccc(O)c12)C(C)C [reference compound]
Rat liver microsomes
  RLM (metabolized or not): R

## CCN(CC)CCc1c[nH]c2ccccc12 [reference compound]
Rat liver microsomes
  RLM (metabolized or not): R

## [2H]c1ccc2[nH]c([2H])c(CCN([2H])CC)c2c1O
Rat liver microsomes
  RLM (metabolized or not): R

## [2H]c1[nH]c2c([2H])c([2H])c([2H])c([2H])c2c1CCN([2H])C(C)C
Rat liver microsomes
  RLM, % (half-life as % vs. the related nondeuterated compound): 145%

## [2H]C([2H])([2H])C([2H])([2H])NC([2H])([2H])C([2H])([2H])c1c[nH]c2cccc(O)c12
Rat liver microsomes
  RLM, % (half-life as % vs. the related nondeuterated compound): [93] %

## [2H]C([2H])(c1c[nH]c2ccccc12)C([2H])([2H])N(CC=C)CC=C
Rat liver microsomes
  RLM, % (half-life as % vs. the related nondeuterated compound): [106] %

## [2H]C([2H])(NC(C)C)C([2H])([2H])c1c[nH]c2ccccc12
Rat liver microsomes
  RLM, % (half-life as % vs. the related nondeuterated compound): [106] %

## [2H]C([2H])(NCC)C([2H])([2H])c1c[nH]c2cccc(O)c12
Rat liver microsomes
  RLM, % (half-life as % vs. the related nondeuterated compound): [94] %

## [2H]C([2H])(c1c[nH]c2cccc(O)c12)C([2H])([2H])N(C(C)C)C(C)C
Rat liver microsomes
  RLM, % (half-life as % vs. the related nondeuterated compound): [97] %

## CC(C)NCCc1c[nH]c2ccccc12 [reference compound]
Rat liver microsomes
  RLM (metabolized or not): R

## CCN(CC)CCc1c[nH]c2ccc(O)cc12 [reference compound]
Rat liver microsomes
  RLM (metabolized or not): R
